Columns and labels:
thymus [1] = assay: Thymus involution (systemic side effect) in croton oil-induced contact dermatitis model; assay type: in vivo, rat; conditions: 48th hour
From the text: (§1) Two principal (essential) demands are set up against topically used steroid antiinflammatory drugs: a) they should be as active as possible in various animal experiments used for investigating the antiinflammatory action; and b) they should induce the lowest harmful systemic side effect. This latter effect can be well characterized by the thymus weight-decreasing action (involution). The possibly lowest toxicity (i.e. the possibly highest LD50 value) is an essential demand for any active agent (drug) used in therapy.
(§2) 2) The croton oil-induced contact dermatitis model
(§3) Infantile female rats weighing 45 to 55 g were used. Animals had previously been selected for this test, the ear weight of which increased at least by 100% under effect of a treatment with 2% croton oil.
(§4) The test compounds were dissolved in a 2% croton oil mixture in various concentrations and then applied onto the ears of the animals. The control group was treated only with the croton oil inducing inflammation. Six hours after treatment the ears of the animals were cut off and weighed. For evaluation, the diminution of the ear weight increase was expressed as "percentage of inhibition", in comparison to the control treated with croton oil only. In the 48th hour the thymi of the animals were excised and the harmful systemic side effect of the test compounds was evaluated by comparing their thymus weight to that of the control animals.

[2] = Comparative acute toxicity (LD50), mice; conditions: mouse, in vivo, 2-week observation
Procedure: (§5) 1) Comparative study on the acute toxicity
(§6) Animal groups consisting of 10 CFLP mice or RG Hann Wistar rats each of both sexes were used. The doses causing the death of 50% of the animals (LD50 values) within a 2-week observation period following subcutaneous (s.c.) or oral (p.o.) administration were determined.

[3] = Comparative acute toxicity (LD50), rats; conditions: rat, in vivo, 2-week observation
Procedure: as §5, §6

experimental asthma = assay: Experimental asthma model (ovalbumin); assay type: in vivo, guinea-pig; conditions: 50 mg/kg i.p. 20 hours before i.v. ovalbumin provocation; for Dyspnoea (percentage occurrence): control 33; for Survival: control 66
From the text: 4) The experimental asthma model
This test was used to investigate the antiasthmatic effect of the test compounds.
It is known that by ovalbumin (OA) treatment an experimental asthma can be induced on guinea-pigs which is accompanied by dyspnoea and causes the death of the animals in severe cases. This test is useful to detect an eventual antiasthmatic effect of the test compounds.
Guinea-pigs of both sexes weighing 300 to 400 g each were used. The experimental animals were sensitized by i.p. ovalbumin (10/ μg of OA+100 mg of aluminum hydroxide/animal) and after 30 days they were provoked by the intravenous (i.v.) administration of 100 mg/kg of OA. Both the test compounds and budesonide used as reference substance were given 50 mg/kg i.p. dose 20 hours before the provocation. The percentage occurrence of dyspnoea and the survival were observed.

thymus [4] = assay: Thymus involution (systemic side effect) in local granuloma sac model; assay type: in vivo, rat; conditions: 10th day
From the text: as §1
(§7) 3) The local granuloma sac model
(§8) Groups consisting of 10 female RG Hann Wistar rats each weighing 130 to 150 g were used. After shaving the back of the animals 25 ml of air were injected beneath the back skin and 1 ml of 2% croton oil inducing inflammation was introduced to the air sac. After 5 days the content of the sac was removed by suction and once 3 doses each of the glucocorticoids to be tested or budesonide respectively, in a volume of 0.5 ml suspension in Tween 80 were administered by an injection syringe. On the 10th day following the start of the experiment the animals were sacrificed and the exudate liquid of the sac (expressed as ml) was measured. The percentage of the antiinflammatory effect was calculated based on the decrease in the volume of exudate related to that of the control.
Then, the thymi of the animals were excised and the harmful systemic side effect of the test compounds was calculated as a percentage based on the comparison of the thymus weight of animals treated with the test compounds to that of the untreated control group.

local granuloma sac = assay: Local granuloma sac model, exudate (antiinflammatory effect); assay type: in vivo, rat; conditions: for Exudate / Inhibition (decrease in volume of exudate): 10th day; for Inhibition (decrease in volume of exudate): vs control; for Relative activity: relative to budesonide = 100, on 2.00 μg/sac line
Procedure: as §7
This method was used to investigate the antiexudative action of the topically administered glucocorticoids.
as §8, with “After shaving the back of the animals 25 ml of air were injected beneath the back skin and 1 ml of 2% croton oil inducing inflammation was introduced to the air sac.” left out

[5] = system: croton oil-induced contact dermatitis; assay: Croton oil-induced contact dermatitis model, ear weight; assay type: in vivo, rat; conditions: for Ear weight / Inhibition (of ear weight increase): topical on ear, 6 hours; for Inhibition (of ear weight increase): vs croton oil control; for Relative activity: relative to budesonide = 100, on 10 μg/ml line
Procedure: as §2, §3, §4

Structure (SMILES) | Thymus involution (thymus [1]; 1 μg/ml topical on ear) | Thymus involution (thymus [1]; 10 μg/ml topical on ear) | Thymus involution (thymus [1]; 100 μg/ml topical on ear) | LD50 at 336 h ([2]; po, female) | LD50 at 336 h ([2]; po, male) | LD50 at 336 h ([2]; sc, female) | LD50 at 336 h ([2]; sc, male) | LD50 at 336 h ([3]; po, female) | LD50 at 336 h ([3]; po, male) | LD50 at 336 h ([3]; sc, female) | LD50 at 336 h ([3]; sc, male) | Dyspnoea (percentage occurrence) (experimental asthma) | Survival (experimental asthma) | Thymus involution (thymus [4]; 0.22 μg/sac) | Thymus involution (thymus [4]; 2.00 μg/sac) | Thymus involution (thymus [4]; 18.00 μg/sac) | Exudate (local granuloma sac; 0.22 μg/sac) | Inhibition (decrease in volume of exudate) (local granuloma sac; 0.22 μg/sac) | Exudate (local granuloma sac; 2.00 μg/sac) | Inhibition (decrease in volume of exudate) (local granuloma sac; 2.00 μg/sac) | other results
CCCC1O[C@@H]2C[C@H]3[C@@H]4CCC5=CC(=O)C=C[C@]5(C)[C@H]4[C@@H](O)C[C@]3(C)[C@]2(C(=O)CO)O1 (stereo partly drawn) [Budesonide, (22RS)-11β,21-dihydroxy-16α,17-butylidenedioxypregna-1,4-dien-3,20-dione, reference compound] | 9.2% | 3.9% | 26.1% | 1360 mg/kg | 1080 mg/kg | 109 mg/kg | 131 mg/kg | 2110 mg/kg | 3400 mg/kg | 71.5 mg/kg | 59.4 mg/kg | 20% | 60% | 0% | 0% | 24.43% | 6.38 ± 0.4 mL | 49.89% | 4.00 ± 0.3 mL | 68.58% | Exudate (local granuloma sac; 18.00 μg/sac): 1.84 ± 0.5 mL; Inhibition (decrease in volume of exudate) (local granuloma sac; 18.00 μg/sac): 85.55%; Relative activity (local granuloma sac): 100; Ear weight ([5]; 1 μg/ml in 2% croton oil): 144.71 ± 2.0 mg; Inhibition (of ear weight increase) ([5]; 1 μg/ml): 19.43%; Ear weight ([5]; 10 μg/ml in 2% croton oil): 127.78 ± 2.0 mg; Inhibition (of ear weight increase) ([5]; 10 μg/ml): 39.53%; Ear weight ([5]; 100 μg/ml in 2% croton oil): 117.07 ± 2.7 mg; Inhibition (of ear weight increase) ([5]; 100 μg/ml): 52.24%; Relative activity [5]: 100
CCCC1O[C@@H]2C=C3[C@@H]4CCC5=CC(=O)C=C[C@]5(C)[C@H]4[C@@H](O)C[C@]3(C)[C@]2(C(=O)CO)O1 (stereo partly drawn) [Ex. No. 2, 11β,16α,17,21-tetrahydroxypregna-1,4,14-trien-3,20-dion-16,17-cyclic butyraldehyde acetal] | 0% | 0% | 9.8% | > 4000 mg/kg | > 4000 mg/kg | 823 mg/kg | 585 mg/kg | > 3000 mg/kg | > 4000 mg/kg | 843 mg/kg | 1210 mg/kg | 14% | 43% | 0% | 0% | 0% | 7.47 ± 0.5 mL | 41.32% | 5.10 ± 0.4 mL | 59.94% | Exudate (local granuloma sac; 18.00 μg/sac): 1.36 ± 0.2 mL; Inhibition (decrease in volume of exudate) (local granuloma sac; 18.00 μg/sac): 89.32%; Relative activity (local granuloma sac): 62; Ear weight ([5]; 1 μg/ml in 2% croton oil): 144.60 ± 2.8 mg; Inhibition (of ear weight increase) ([5]; 1 μg/ml): 19.56%; Ear weight ([5]; 10 μg/ml in 2% croton oil): 131.10 ± 2.7 mg; Inhibition (of ear weight increase) ([5]; 10 μg/ml): 35.59%; Ear weight ([5]; 100 μg/ml in 2% croton oil): 118.20 ± 2.2 mg; Inhibition (of ear weight increase) ([5]; 100 μg/ml): 50.90%; Relative activity [5]: 78
CC(C)C1O[C@@H]2C=C3[C@@H]4CCC5=CC(=O)C=C[C@]5(C)[C@H]4[C@@H](O)C[C@]3(C)[C@]2(C(=O)CO)O1 (stereo partly drawn) [Ex. No. 6, 11β,16α,17,21-tetrahydroxypregna-1,4,14-trien-3,20-dion-16,17-cyclic isobutyraldehyde acetal] | 0% | 1.7% | 0% | 2790 mg/kg | 2930 mg/kg | 634 mg/kg | 333 mg/kg | > 3000 mg/kg | > 4000 mg/kg | 164 mg/kg | 162 mg/kg | 0% | 100% | 4.98% | 4.98% | 6.22% | 6.52 ± 0.6 mL | 48.79% | 5.08 ± 0.4 mL | 60.10% | Exudate (local granuloma sac; 18.00 μg/sac): 1.69 ± 0.3 mL; Inhibition (decrease in volume of exudate) (local granuloma sac; 18.00 μg/sac): 86.73%; Relative activity (local granuloma sac): 71; Ear weight ([5]; 1 μg/ml in 2% croton oil): 144.40 ± 3.5 mg; Inhibition (of ear weight increase) ([5]; 1 μg/ml): 19.80%; Ear weight ([5]; 10 μg/ml in 2% croton oil): 126.90 ± 2.7 mg; Inhibition (of ear weight increase) ([5]; 10 μg/ml): 40.57%; Ear weight ([5]; 100 μg/ml in 2% croton oil): 115.10 ± 2.6 mg; Inhibition (of ear weight increase) ([5]; 100 μg/ml): 54.57%; Relative activity [5]: 118
